Data: a melting point compilation (Tetko et al.; mined from patent text by program, amines drawn as free bases though some values may be those of a salt)

With `CC(=O)CCc1nc2c(N)nc3ccccc3c2n1CC(C)C` the melting point was 172 to 174 °C. `COc1ccc(CCc2ccc(NC(=O)C(=O)c3cc(Cl)ccc3O)cc2)cc1OC` showed a melting point of 128 to 130 °C. Work on `CC(=O)NC1(c2ccc(CN3CCN(c4nccs4)CC3)cc2)CC1` yielded a melting point of 184 to 185 °C. Work on `Cn1c(C(F)(F)F)cc(=O)n(-c2c(F)cc(Cl)c3oc(CO)cc23)c1=O` yielded a melting point of 139 to 141 °C. With `CCOC(=O)c1cnc2cc(C(C)(C)C)ccc2c1O` the melting point was 279 to 281 °C. In the case of `CC12CCC(C1)C1(C)Oc3ccc(C(=O)/C=C/c4ccc(C(=O)O)cc4)cc3C21C` (centres undefined), the melting point is reported as 225 to 227 °C. With `O=C1C=C(c2c(Br)cc(Br)cc2Br)C(=O)N1` the melting point was 140 to 143 °C. Compound `OC1(CCc2ccccc2)CCC2(CC1)OCCO2` has a melting point of 109 to 110 °C. `CC(=O)NN=C(C)c1ccncc1` gave a melting point of 178 °C. With `CCOC(=O)c1cnc2ccc(I)cn2c1=O` the melting point was 166 to 168 °C. In the case of `CC(=O)Nc1ccccc1Sc1ccc([N+](=O)[O-])cc1[N+](=O)[O-]`, the melting point is reported as 183 to 184 °C. `O=C(O)c1ccc(-c2ccc3ncnc(Nc4ccc(OCc5cccc(F)c5)c(Cl)c4)c3c2)s1` showed a melting point of 312 to 314 °C. Work on `O=C(O)Cc1cnc2c(NC(=O)c3c(Cl)cccc3Cl)cccc2c1` yielded a melting point of over 250 °C. With `CCOC(=O)c1cc(=O)c2c(OCCOc3ccc([N+](=O)[O-])cc3)cccc2o1` the melting point was 158 to 161 °C. Work on `COc1cccc2cc(C3CCN(C)CC3)oc12` yielded a melting point of 74 to 75 °C. For `O=c1[nH]c(=O)n(C2COC(CO)C2CO)cc1C=CBr` (centres undefined), the melting point was 142 to 143 °C. In the case of `O=C1C(=Cn2ccnc2)C(c2ccc(Cl)cc2)c2ccc(Cl)cc21` (centres undefined), the melting point is reported as 204 to 205 °C. Work on `O=C(O)c1cc(OCCOc2cccc3ccccc23)cc(OCCOc2cccc3ccccc23)c1` yielded a melting point of 213 to 215 °C. `COC(=O)C(=NO)c1nc2cccc(OC)c2oc1=O` gave a melting point of 176 to 178 °C. With `CS(=O)(=O)c1ccc(-n2nc(C(F)(F)F)nc2-c2ccc(Br)cc2)nn1` the melting point was 174 to 181 °C. For `Cc1ccc(-c2ccc3c(c2)C=C(C(=O)Nc2ccc(CN(CCO)CCO)cc2)CC3)cc1`, the melting point was 150 to 151 °C. Work on `Oc1ccc2c(c1)COc1c-2cc2ccc(O)cc2c1-c1ccsc1` yielded a melting point of 159 to 161 °C. In the case of `CCCCCC(=O)N(CO)C1N=C(c2ccccc2)c2ccccc2N(C)C1=O` (single isomer, unassigned; (+)), the melting point is reported as 154 to 156 °C. With `CCOC(=O)C1=C(COCc2nnn[nH]2)NC(C)=C(C(=O)OC)C1c1cccc(Cl)c1Cl` (centres undefined) the melting point was 112 to 114 °C. For `CCCN(C)c1nn(C)c(=O)c2c1ccn2-c1c(C)cc(C)cc1C`, the melting point was 105 to 108 °C. Compound `CC(O)c1nsc2nc3ccccc3n12` (centres undefined) has a melting point of 174 to 175 °C. Work on `CCOC(=O)c1ccc(CBr)c(F)c1` yielded a melting point of 42.5 to 44 °C. Work on `NC(=O)c1cnn(C2OC(CO)C(O)C2O)n1` (centres undefined) yielded a melting point of 150 to 151 °C. `CC(=O)N[C@@H](CSC(=O)[C@@H](C)c1ccc(CC(C)C)cc1)C(=O)O` gave a melting point of 123 to 125 °C. `CC(O)=C1SC(=S)N(c2ccc(Cl)cc2)C1=O` showed a melting point of 200 to 205 °C. For `CCSc1cc(C)nc(SCC)c1NC(=O)CCCSc1nc2ccccc2[nH]1`, the melting point was 160 to 161 °C. Compound `CCCCCCCCCCCCSc1ccc2nn(-c3cc(C(C)(C)C)cc(C(C)(C)C)c3O)nc2c1` has a melting point of 62 to 64 °C. Compound `COc1cccc([C@H]2O[C@H](CC(=O)NCc3cccc(CCC(=O)O)c3)C(=O)N(CC(C)(C)CO)c3ccc(Cl)cc32)c1OC` has a melting point of 177 to 178 °C. For `OC(CN1CCNC1=S)c1cccc(F)c1` (centres undefined), the melting point was 116 °C. Compound `CC(C)(C)OC(=O)N1CCc2c(n(CCO)c3c(Cl)c(Cl)ccc23)CC1` has a melting point of 117 to 120 °C. Compound `Cc1c(CO)ncn1C` has a melting point of 161 to 163 °C. In the case of `CCCCCC1CCc2cc(C(N)=O)ccc2C1` (centres undefined), the melting point is reported as 166 to 168 °C. Compound `COc1ccc2c(c1)C(=O)C(=Cc1ccccc1)O2` has a melting point of 134 °C. With `CCCCn1nc(C)c(C(N)=O)c1Cc1ccc(-c2ccccc2-c2nnn[nH]2)cc1` the melting point was 204 to 208 °C. In the case of `CC1(C)CCc2c(N3CCOCC3)nc3sc4c(NCCc5ccccn5)ncnc4c3c2C1`, the melting point is reported as 238 to 239 °C. `COc1cc(OC)c2c(=O)n(CCCN3CCCC3)c(-c3cc(C)c(OCCCN4CCCC4)c(C)c3)nc2c1` showed a melting point of 109 to 111 °C. Compound `c1cncc(NC2CCNCC2)c1` has a melting point of 127 to 129 °C. Compound `Oc1ccc(-n2c(-c3ccccc3)cc3c2CCCC3)cc1` has a melting point of 181 to 182 °C. `CCOC(=O)C(=Cc1cccn2cc(C(C)(C)C)nc12)N=[N+]=[N-]` showed a melting point of 108 to 110 °C. With `COc1ccc(-c2nn(Cc3ccccc3)c(=O)c3ccccc23)c(O)c1OC` the melting point was 155 to 156 °C. Compound `CCC(CC)n1c(N)nc2c(Oc3c(C)cc(C)cc3C)nc(C)cc21` has a melting point of 208 to 210 °C. With `O=C(Nc1ccc(C(F)(F)F)cc1)Nc1ccc(C(=O)N2CCOCC2)s1` the melting point was 250 to 253 °C. With `COC(=O)C1=C(C)NC(C)=C(C(=O)OCCc2ccc(O)cc2)C1c1cccc([N+](=O)[O-])c1` (centres undefined) the melting point was 107 to 109 °C. With `Cc1ccc(C2(O)c3c(C)c(NC(=O)CC(C)(C)C)c(C)c(C)c3OC2(C)C)cc1` (centres undefined) the melting point was 146 to 148 °C. Work on `Fc1ccc(C2=Nc3cccnc3Nc3ccccc32)cc1` yielded a melting point of 203 to 205 °C. With `COCCNC(=O)c1cccc(-c2cccc3oc(Cc4cccc(C(F)(F)F)c4)cc23)c1` the melting point was 91 to 92 °C. Work on `O=C(NC(=S)NC1CCN(CCc2c[nH]c3ccccc23)CC1)c1ccccc1` yielded a melting point of 212 to 215 °C. With `NC(=O)c1nnn(Cc2ccc(C(=O)c3ccc(Cl)cc3)c(Cl)c2)c1N` the melting point was 203 to 205 °C. Work on `COC(=O)C1=C(COCCn2c(C)nc(C)c2C)Nc2[nH]c(N)nc(=O)c2C1c1ccccc1Cl` (centres undefined) yielded a melting point of 225 to 227 °C. In the case of `COc1ccc(C(=O)c2sc3cc(OC)ccc3c2-c2ccccc2)cc1`, the melting point is reported as 127 to 128 °C. For `Cn1cnc(C(c2ccc(Cl)cc2)c2ccc3c(c2)c(-c2ccccc2)cc(=O)n3C)c1` (centres undefined), the melting point was 150 °C. Work on `COC1(c2cc(F)cc(Sc3ccc(C(CO)=NO)cc3)c2)CCOCC1` yielded a melting point of 145 to 146 °C. Compound `Cc1ccc(Oc2ccc(C(=O)c3ccc(Oc4ccc(C)c(C)c4)cc3)cc2)cc1C` has a melting point of 68 to 69 °C. Work on `CC(C)c1nn(-c2ccc(C(F)(F)F)cn2)cc1CCCOc1ccccc1CC(=O)O` yielded a melting point of 132 to 133 °C. Compound `CC(C)c1nc(C(c2ccccc2)c2ccccc2)cc(-c2ccc(F)cc2)c1CO` has a melting point of 138 to 140 °C. Work on `O=[N+]([O-])Cc1cccc(OCc2ccccc2)c1` yielded a melting point of 55 to 56 °C. For `CCCCOC(=O)C(N)C=CCP(=O)(O)O` (centres undefined), the melting point was 160 to 161 °C. Compound `CCOC(=O)C(=NOC)c1nc(Cl)cc(NC=O)n1` has a melting point of 116 to 119 °C. Work on `CCCN(CCC)c1nc2c(N3CCCCCC3)nc(N3CCCCCC3)cc2c(=O)[nH]1` yielded a melting point of 220 °C. `COc1cc(OCC(=O)O)cc2c1C(=O)CC1(CCCCC1)S2` gave a melting point of 195 to 196 °C. For `CCCCc1oc2ccccc2c1-c1ncc(-c2ccc3c(Br)c(O)ccc3c2)o1`, the melting point was 172 to 174 °C. Compound `NC(=O)N1c2ccccc2CC(O)c2ccccc21` (centres undefined) has a melting point of 70.4 to 101 °C. With `Cc1ccc(C2=CCC(C)(C)c3cc(C(=O)c4ccc5cc(C(=O)O)ccc5c4)ccc32)cc1` the melting point was 267 °C. With `CCOC(=O)c1cnn(-c2ccc(C(F)(F)F)cc2[N+](=O)[O-])c1N` the melting point was 118 to 121 °C. In the case of `CC(C(=O)O)c1ccc2ocnc2c1` (centres undefined), the melting point is reported as 126 to 128 °C. For `COC(=O)COc1ccc2cc(CNC(=O)c3cnn(-c4ccc(Cl)cc4)c3C(F)(F)F)ccc2c1Br`, the melting point was 206 to 207 °C. Compound `Cc1ccc2c(c1)OC(CCO)C(=O)N2Cc1cccc(Cl)c1` (centres undefined) has a melting point of 72 to 74 °C. Compound `C=Cc1ncn2c1[C@@H]1CCN1C(=O)c1c(Cl)cccc1-2` has a melting point of 171 to 172 °C. For `CC1(C2CCCC2)Cc2cc(OCCCCCCC(=O)O)c(Cl)c(Cl)c2C1=O` (centres undefined), the melting point was 107 to 110 °C. Work on `Cc1ccccc1NC(=O)CN(C(=O)CN1C(=O)c2ccccc2C1=O)c1ccccc1` yielded a melting point of 160 °C. For `CCOC(=O)c1ccc(OCC(C)O)cc1` (centres undefined), the melting point was 52 to 53 °C. For `CCOc1cc2c(C)c(CCN3CCC(c4ccccc4)CC3)c(=O)oc2cc1OC`, the melting point was 195 to 196 °C. `N#CCc1ccc(-c2cn3ccccc3n2)cc1` showed a melting point of 175 to 177 °C. Work on `CN(C)C(=O)c1c([N+](=O)[O-])cccc1S(=O)(=O)N(C)CCO` yielded a melting point of 107 °C. In the case of `Cc1c(C(=O)Nc2cccc(C#N)c2N2CCC(O)CC2)cnn1C`, the melting point is reported as 261 to 262 °C. In the case of `COc1ccc(C)cc1NC(=O)Nc1ccc(C2=CCN(C(=O)Nc3ncccc3CO)CC2)cc1`, the melting point is reported as 103 to 108 °C. Compound `Cc1cccc2c(=O)[nH]c(N3CCN(C)C(CO)C3)cc12` (centres undefined) has a melting point of 184 to 186 °C. `Cc1nc[nH]c1C(=O)OC(C)C` showed a melting point of 188 to 190 °C. For `N#Cc1cc(-c2ccoc2)c2ccc(COc3cc(F)cc(-c4cccnc4)c3)cc2n1`, the melting point was 193 to 195 °C. Work on `ClCc1cccc(/C=C/c2cc(-c3ccsc3)cs2)c1` yielded a melting point of 137 to 138 °C. `NS(=O)(=O)c1cccc(-c2cc(-c3nc(-c4ccc(F)c(F)c4)cc(C(F)(F)F)n3)ccn2)c1` showed a melting point of 234 °C. `CC(=O)OC(CF)c1cccnc1S(N)(=O)=O` (centres undefined) gave a melting point of 127 to 129 °C. `Cc1nc2ccc(F)cc2c(=O)n1C1CCC(=O)NC1=O` (centres undefined) showed a melting point of 273 to 275 °C. `O=C(NCCN1CCCC1)c1ccc(-c2ccc3nnn(Cc4ccc5ncccc5c4)c3n2)cc1` gave a melting point of 135 to 137 °C. `CSc1nc(NCc2ccc(-c3ccccn3)cc2)n2ncc(C(C)C)c2n1` gave a melting point of 136 to 138 °C. Work on `O=C(O)C(Cl)Cc1ccccc1[N+](=O)[O-]` (centres undefined) yielded a melting point of 108 to 109 °C. With `CCc1cc(-c2cccnc2)nn1-c1ccc(NCc2ccc(OCCCC#N)cc2)cc1` the melting point was 131 to 132 °C. In the case of `CSC1C2=C(CCCC2)C(=O)N1c1ccc(Cl)cc1F` (centres undefined), the melting point is reported as 97 to 98 °C. Compound `O=C1C2=C(OCCO2)C(=O)c2cc(Cl)ccc21` has a melting point of 209 to 210 °C. Compound `O=C1NCC(Cc2ccccc2-c2ccccc2)O1` (centres undefined) has a melting point of 146 to 148 °C. Work on `CCCc1c(C(=O)C(C)C)c2ccc(C(N)=O)cc2n1Cc1ccc(Cl)cc1F` yielded a melting point of 200 to 202 °C. With `CCNC(=O)c1cc(NS(=O)(=O)c2ccc(OC)cc2)ccc1Oc1cncc(Cl)c1` the melting point was 146 to 147 °C. `COc1ccc(C(=O)Nc2ccc3ccc(Nc4ccccc4)nc3n2)cc1` showed a melting point of 245 °C. `CC1(Br)CCCNC1=O` (centres undefined) gave a melting point of 107 to 109 °C.
